Assay results reported in article PMC3273640 (Journal of Molecular Biology, 2011).

Assay: CD measurements of folding in water/TFE mixtures
Assay type: physicochemical
Settings: CD in water/TFE mixtures (>= 2 M TFE), fit with Eq. S11

Ac-CGWWLALALALALALALALALWWA-NH2 [WALP23]
folding free energy: 4.6 ± 0.2 kcal/mol

Ac-CGWWLALALALALALALALALALALWWA-NH2 [WALP27]
folding free energy: 4.8 ± 0.2 kcal/mol
